Assay results taken from patent publication US20250326771A1, “PIPERAZINE DERIVATIVES USEFUL IN HIV THERAPY” (VIIV HEALTHCARE COMPANY, priority 2022, published 2025).
Like-named read-outs stand apart in the source and are kept apart here.

Tests used:
[1] = target: cIAP1-BIR3 (Homo sapiens (Human), UniProt Q13490); experiment: BIR binding assay (FRET competition), cIAP1 BIR3; conditions: for cIAP1 BIR3 vs BIR2 separation window: fold separation (FS) for cIAP1
Procedure, shortened: (§1)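 His-tagged domains (50 nM cIAP1-BIR3, 325 nM cIAP2-BIR2, 325 nM cIAP1-BIR2, 100 nM XIAP-BIR3) compete with compounds for a 200 nM AlexaFluor647-labelled SMAC/DIABLO peptide in HEPES buffer, pH 7.4, for 60 min. Then 2 nM Eu-W1024 is added for 30 min. The 615/665 nm ratio is fit by four-parameter fit to give IC50.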

[2] = target: cIAP2-BIR3 (Homo sapiens (Human), UniProt Q13489); experiment: BIR binding assay (FRET competition), cIAP2 BIR3; conditions: for cIAP2 BIR3 vs BIR2 separation window: fold separation (FS) for cIAP2
[3] = target: XIAP-BIR3 (Homo sapiens (Human), UniProt P98170); experiment: BIR binding assay (FRET competition), XIAP BIR3; conditions: for XIAP BIR3 vs BIR2 separation window: fold separation (FS) for XIAP
Procedure, shortened: as §1

[4] = target: XIAP-BIR2 (Homo sapiens (Human), UniProt P98170); experiment: BIR binding assay (FRET competition), XIAP BIR2
Procedure, shortened: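 Compounds in a 15-point, 3-fold series competed with an AlexaFluor647 SMAC peptide (AVPIAQKSE, 200 nM) for 200 nM His-tagged XIAP-BIR2 over 60 min in pH 7.4 HEPES/CHAPS/DTT buffer. Eu-W1024 (2 nM) was then added for 30 min. IC50 and pIC50 were derived from the 615 nm/665 nm emission ratio by variable-slope fit.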

[5] = tested on: Jurkat HIV-luciferase clones; experiment: Jurkat latency reversal assay; type: cell-based; conditions: Homo sapiens, 48 h; Jurkat latency reversal assay potency; read-out: Jurkat pEC50 (converted)
Procedure, shortened: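 EC50 and maximal activation versus vehicle were derived by four-parameter logistic regression of luciferase luminescence. The luminescence was induced in pooled Jurkat HIV-luciferase clones C16, 115 and N6 (5,000 cells/well) after 48 h at 37° C with duplicate 14-point, 3-fold dilutions starting at 10 μM (0.5% DMSO).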

[6] = target: cIAP1-BIR2 (Homo sapiens (Human), UniProt Q13490); experiment: BIR binding assay (FRET competition), cIAP1 BIR2
Procedure, shortened: as §1

[7] = target: cIAP2-BIR2 (Homo sapiens (Human), UniProt Q13489); experiment: BIR binding assay (FRET competition), cIAP2 BIR2
Procedure, shortened: as §1

[8] = FRET competition, read-out: XIAP BIR2 (pIC50) (converted)
[9] = FRET competition binding, read-out: XIAP BIR2 (pIC50) (converted)

Sequence of XIAP-BIR3 (P98170 241-356): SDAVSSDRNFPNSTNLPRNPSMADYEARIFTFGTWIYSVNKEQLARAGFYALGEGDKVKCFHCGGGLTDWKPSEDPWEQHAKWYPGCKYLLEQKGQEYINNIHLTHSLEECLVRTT
Sequence of cIAP2-BIR3 (Q13489 238-349): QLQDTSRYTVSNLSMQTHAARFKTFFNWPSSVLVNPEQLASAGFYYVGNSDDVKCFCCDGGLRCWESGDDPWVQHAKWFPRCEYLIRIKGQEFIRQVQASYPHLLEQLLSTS
Sequence of cIAP1-BIR3 (Q13490 253-363): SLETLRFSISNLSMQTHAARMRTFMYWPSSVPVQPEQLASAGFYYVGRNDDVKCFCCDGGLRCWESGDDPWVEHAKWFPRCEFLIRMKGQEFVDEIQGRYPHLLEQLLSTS
Sequence of cIAP2-BIR2 (Q13489 158-242): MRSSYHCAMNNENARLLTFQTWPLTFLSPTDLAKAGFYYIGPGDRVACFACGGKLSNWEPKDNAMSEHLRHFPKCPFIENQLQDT
Sequence of XIAP-BIR2 (P98170 124-240): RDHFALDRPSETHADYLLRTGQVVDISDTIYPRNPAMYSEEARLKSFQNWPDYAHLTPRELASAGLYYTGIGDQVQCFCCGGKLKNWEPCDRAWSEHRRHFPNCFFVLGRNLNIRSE
Sequence of cIAP1-BIR2 (Q13490 173-257): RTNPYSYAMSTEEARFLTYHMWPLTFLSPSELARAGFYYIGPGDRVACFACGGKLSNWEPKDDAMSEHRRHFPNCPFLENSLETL

Row | SMILES | IC50 [1] [nM] | cIAP1 BIR3 vs BIR2 separation window [1] | IC50 [2] [nM] | cIAP2 BIR3 vs BIR2 separation window [2] | IC50 [3] [nM] | XIAP BIR3 vs BIR2 separation window [3] | IC50 [4, 8] [nM] | EC50 [5] [nM] | IC50 [6] [nM] | IC50 [7] [nM] | IC50 [4, 9] [nM] | IC50 [4] [nM]
1 | C[C@@H]1CN(CC(=O)N2CC(C)(C)c3[nH]c(=O)c(Cc4c(F)cc(F)cc4F)cc32)[C@@H](CN2CCO[C@H](C(=O)NCc3ccc(CNC(=O)[C@@H]4CN(C[C@H]5CN[C@H](C)CN5CC(=O)N5CC(C)(C)c6[nH]c(=O)c(Cc7c(F)cc(F)cc7F)cc65)CCO4)cc3)C2)CN1 [Compound 167, (2S,2′S)-N,N′-(1,4-phenylenebis(methylene)) bis(4-(((2R,5R)-1-(2-(3,3-dimethyl-5-oxo-6-(2,4,6-trifluorobenzyl)-2,3,4,5-tetrahydro-1H-pyrrolo[3,2-b]pyridin-1-yl)-2-oxoethyl)-5-methylpiperazin-2-yl)methyl)morpholine-2-carboxamide)] | 7.94 to 15.8 | ++ (1,000>FS>100) | 1.38 to 7.94 | ++ (1,000>FS>100) | 15.8 to 31.6 | ++++ (FS>10,000) | 10000 to 51300 | 0.49 to 12.6 | 22.4 to 1000 | 22.4 to 1000 | – | –
2 | C[C@@H]1CN(CC(=O)N2CC(C)(C)c3[nH]c(=O)c(Cc4ccc(F)cc4)cc32)[C@@H](CN2CCN(C(=O)COc3cccc(OCC(=O)N4CCN(C[C@H]5CN[C@H](C)CN5CC(=O)N5CC(C)(C)c6[nH]c(=O)c(Cc7ccc(F)cc7)cc65)[C@H](C)C4)c3)C[C@H]2C)CN1 [Example 11, 1,1′-(2,2′-((3R,3′R,6R,6′R)-(((2R,2′R)-(2,2′-(1,3-phenylenebis(oxy))bis(acetyl))bis(2-methylpiperazine-4,1-diyl))bis(methylene))bis(3-methylpiperazine-6,1-diyl))bis(acetyl))bis(6-(4-fluorobenzyl)-3,3-dimethyl-1,2,3,4-tetrahydro-5H-pyrrolo[3,2-b]pyridin-5-one)] | 15.8 to 31.6 | ++ (1,000>FS>100) | 15.8 to 31.6 | ++ (1,000>FS>100) | 31.6 to 501 | ++++ (FS>10,000) | – | 63.1 to 316 | 1000 to 3160 | 1000 to 3160 | 10000 to 51300 | –
3 | C[C@@H]1CN(CC(=O)N2CC(C)(C)c3[nH]c(=O)c(Cc4ccc(F)cc4)cc32)[C@@H](CN2CCO[C@H](C(=O)NCCOCCOCCOCCNC(=O)[C@@H]3CN(C[C@H]4CN[C@H](C)CN4CC(=O)N4CC(C)(C)c5[nH]c(=O)c(Cc6ccc(F)cc6)cc54)CCO3)C2)CN1 [Example 121, (2S,2'S)-N,N′-(((oxybis(ethane-2,1-diyl))bis(oxy))bis(ethane-2,1-diyl))bis(4-(((2R,5R)-1-(2-(6-(4-fluorobenzyl)-3,3-dimethyl-5-oxo-2,3,4,5-tetrahydro-1H-pyrrolo[3,2-b]pyridin-1-yl)-2-oxoethyl)-5-methylpiperazin-2-yl)methyl)morpholine-2-carboxamide)] | 7.94 to 15.8 | +++ (10,000>FS>1,000) | 7.94 to 15.8 | +++ (10,000>FS>1,000) | 7.94 to 15.8 | ++++ (FS>10,000) | – | 63.1 to 316 | 1000 to 3160 | 1000 to 3160 | 10000 to 51300 | –
4 | C[C@@H]1CN(CC(=O)N2CC(C)(C)c3[nH]c(=O)c(Cc4ccc(F)cc4)cc32)[C@@H](CN2CCO[C@H](C(=O)NCc3cccc(CNC(=O)[C@@H]4CN(C[C@H]5CN[C@H](C)CN5CC(=O)N5CC(C)(C)c6[nH]c(=O)c(Cc7ccc(F)cc7)cc65)CCO4)c3)C2)CN1 [Example 122, (2S,2'S)-N,N′-(1,3-phenylenebis(methylene))bis(4-(((2R,5R)-1-(2-(6-(4-fluorobenzyl)-3,3-dimethyl-5-oxo-2,3,4,5-tetrahydro-1H-pyrrolo[3,2-b]pyridin-1-yl)-2-oxoethyl)-5-methylpiperazin-2-yl)methyl)morpholine-2-carboxamide)] | 7.94 to 15.8 | ++ (1,000>FS>100) | 7.94 to 15.8 | +++ (10,000>FS>1,000) | 15.8 to 31.6 | ++++ (FS>10,000) | – | 12.6 to 63.1 | 1000 to 3160 | 1000 to 3160 | 10000 to 51300 | –
5 | C[C@@H]1CN(CC(=O)N2CC(C)(C)c3[nH]c(=O)c(Cc4ccc(F)cc4)cc32)[C@@H](CN2CCC(CCN(C)C(=O)c3ccc(C(=O)N(C)CCC4CCN(C[C@H]5CN[C@H](C)CN5CC(=O)N5CC(C)(C)c6[nH]c(=O)c(Cc7ccc(F)cc7)cc65)CC4)cc3)CC2)CN1 [Example 104, N^1,N^4-bis(2-(1-(((2R,5R)-1-(2-(6-(4-fluorobenzyl)-3,3-dimethyl-5-oxo-2,3,4,5-tetrahydro-1H-pyrrolo[3,2-b]pyridin-1-yl)-2-oxoethyl)-5-methylpiperazin-2-yl)methyl)piperidin-4-yl)ethyl)-N^1,N^4-dimethylterephthalamide] | 1.38 to 7.94 | +++ (10,000>FS>1,000) | 1.38 to 7.94 | +++ (10,000>FS>1,000) | 1.38 to 7.94 | ++++ (FS>10,000) | – | 63.1 to 316 | 1000 to 3160 | 1000 to 3160 | 10000 to 51300 | –
6 | C[C@@H]1CN(CC(=O)N2CC(C)(C)c3[nH]c(=O)c(Cc4ccc(F)cc4)cc32)[C@@H](CN2CCO[C@H](C(=O)NCC#CC#CCNC(=O)[C@@H]3CN(C[C@H]4CN[C@H](C)CN4CC(=O)N4CC(C)(C)c5[nH]c(=O)c(Cc6ccc(F)cc6)cc54)CCO3)C2)CN1 [Example 93, (2S,2'S)-N,N′-(hexa-2,4-diyne-1,6-diyl)bis(4-(((2R,5R)-1-(2-(6-(4-fluorobenzyl)-3,3-dimethyl-5-oxo-2,3,4,5-tetrahydro-1H-pyrrolo[3,2-b]pyridin-1-yl)-2-oxoethyl)-5-methylpiperazin-2-yl)methyl)morpholine-2-carboxamide)] | 7.94 to 15.8 | ++ (1,000>FS>100) | 7.94 to 15.8 | +++ (10,000>FS>1,000) | 31.6 to 501 | ++++ (FS>10,000) | – | 12.6 to 63.1 | 22.4 to 1000 | 1000 to 3160 | 10000 to 51300 | –
7 | C[C@@H]1CN(CC(=O)N2CC(C)(C)c3[nH]c(=O)c(Cc4ccc(F)cc4)cc32)[C@@H](CN2CCO[C@H](COc3cccc(OC[C@@H]4CN(C[C@H]5CN[C@H](C)CN5CC(=O)N5CC(C)(C)c6[nH]c(=O)c(Cc7ccc(F)cc7)cc65)CCO4)c3F)C2)CN1 [Example 72, 1,1′-(2,2′-((3R,3′R,6R,6′R)-(((2S,2'S)-(((2-fluoro-1,3-phenylene)bis(oxy))bis(methylene))bis(morpholine-2,4-diyl))bis(methylene))bis(3-methylpiperazine-6,1-diyl))bis(acetyl))bis(6-(4-fluorobenzyl)-3,3-dimethyl-1,2,3,4-tetrahydro-5H-pyrrolo[3,2-b]pyridin-5-one)] | 7.94 to 15.8 | – | 15.8 to 31.6 | – | 15.8 to 31.6 | – | – | 0.49 to 12.6 | 22.4 to 1000 | 1000 to 3160 | – | 10000 to 51300
8 | C[C@@H]1CN(CC(=O)N2CC(C)(C)c3[nH]c(=O)c(Cc4ccc(Cl)cc4C(=O)N(C)C)cc32)[C@@H](CN2CCO[C@H](C(=O)NCc3ccc(CNC(=O)[C@@H]4CN(C[C@H]5CN[C@H](C)CN5CC(=O)N5CC(C)(C)c6[nH]c(=O)c(Cc7ccc(Cl)cc7C(=O)N(C)C)cc65)CCO4)cc3)C2)CN1 [Compound 172, (2S,2′S)-N,N′-(1,4-phenylenebis(methylene)) bis(4-(((2R,5R)-1-(2-(6-(4-chloro-2-(dimethylcarbamoyl)benzyl)-3,3-dimethyl-5-oxo-2,3,4,5-tetrahydro-1H-pyrrolo[3,2-b]pyridin-1-yl)-2-oxoethyl)-5-methylpiperazin-2-yl)methyl)morpholine-2-carboxamide)] | 7.94 to 15.8 | +++ (10,000>FS>1,000) | 7.94 to 15.8 | ++++ (FS>10,000) | 31.6 to 501 | ++++ (FS>10,000) | 10000 to 51300 | 316 to 3310 | 10000 to 51300 | 10000 to 51300 | – | –
